# Measurements reported in patent US20070265194A1, “Agents for the treatment of viral infections” (priority 2000, published 2007).
# Peptide text beside a SMILES is read from it. * marks the point of attachment. Cbz = O=C(OCc1ccccc1)*
# How the values were obtained:
# DHBV = assay: Primary and secondary DHBV infection in primary duck hepatocytes, core immunofluorescence; assay type: cell-based, duck hepatitis B virus
# 20S proteasome = 20S proteasome (Homo sapiens, UniProt P28074); settings: in vitro; cited from earlier work
# HIV-1NL4-3 [1] = assay: Virus release from HIV-1-infected A3.01 T cells, p24 CA capture ELISA; assay type: cell-based
# Method: Cultures of human CD4^+ T cells, A3.01 were infected with HIV-1NL4-3 and cultured in RPMI for approx. 7 days. Approx. 80% of the cell culture medium was replaced every other day. The amount of released virus particles was determined by testing samples of the cell culture supernatants for activity of virus-associated RT. Furthermore, the spread of the infection was monitored by indirect immunofluorescence with anti-CA antibodies. The time of maximum spread of the infection in the culture was determined on the basis of RT accumulation and of syncytia formation. At the time of maximum virus production (approx. 7 days after infection), fresh noninfected A3.01 cells were mixed with the infected culture in a 1:1 ratio and incubated for another 24 h. This makes it possible to quasi-synchronize the infection and to maximize the number of infected cells with maximum HIV expression at a given time. The cells were divided into parallel cultures, washed with PBS and treated with 40 microM zLLL in medium for 4.5 hours. […] The virus-containing cell culture supernatants were collected, filtered, and the amount of Gag proteins was quantified by means of a standardized capture ELISA using anti-CA antibodies with different epitopes. […] The infectivity of the culture supernatants was determined by means of end point titration (detailed in example 6d) and is indicated as TCID50 in Table 1. The specific infectivity was determined by dividing TCID50 by the total amount of Gag and is listed in Table 1 as percentage infectivity of the control culture (no zLLL=100%). […]
# CD4^+ T cells (A3.01) were infected with HIV-1NL4-3, at the time of maximum virus production (approx. 7 days post infection), parallel cultures were treated either without or with 40 μM zLLL for 1 (+zLLL “−1 hr”) or 6 hours (+zLLL “−6 hr”). […] The virus-containing supernatants were collected, and the amount of CA antigen was quantified by means of ELISA. The specific infectivity was determined as the infectious virus titer per nanog of CA and depicted relative to the untreated control culture (100%). […]
# HIV-1NL4-3 [2] = assay: Infectivity of released virions, end point titration (TCID50) on C8166 cells; assay type: cell-based; settings: for Infectivity Titer/ng p24^CA / Virus titer/ml TCID50 / Infectivity % of “no zLLL”: 40 μM zLLL; for Infectivity % of “no zLLL”: control = 100; for reduction of infectious virions in the cell culture medium: 40 microM zLLL
# Method: Cultures of human CD4^+ T cells, A3.01 were infected with HIV-1NL4-3 and cultured in RPMI for approx. 7 days. Approx. 80% of the cell culture medium was replaced every other day. The amount of released virus particles was determined by testing samples of the cell culture supernatants for activity of virus-associated RT. Furthermore, the spread of the infection was monitored by indirect immunofluorescence with anti-CA antibodies. The time of maximum spread of the infection in the culture was determined on the basis of RT accumulation and of syncytia formation. At the time of maximum virus production (approx. 7 days after infection), fresh noninfected A3.01 cells were mixed with the infected culture in a 1:1 ratio and incubated for another 24 h. This makes it possible to quasi-synchronize the infection and to maximize the number of infected cells with maximum HIV expression at a given time. The cells were divided into parallel cultures, washed with PBS and treated with 40 microM zLLL in medium for 4.5 hours. Washing of the cells and culturing in fresh medium was necessary in order to monitor the newly produced viruses during the harvest period of 4.5 hours (+zLLL “0 hr”). It was assumed that there is a certain lag phase of approx. 1 hour, corresponding to HIV-1 assembly, between the start of the treatment with proteasome inhibitors and the release of defective virions. In order to monitor the virus production of cells with inactivated proteasomes at the start of the harvest period, parallel cultures were pretreated with 40 microm zLLL prior to the washing step for one (+zLLL “−1 hr”) or 6 hours (+zLLL “−6 hr”). A parallel culture was incubated without inhibitor (no zLLL). The virus-containing cell culture supernatants were collected, filtered, and the amount of Gag proteins was quantified by means of a standardized capture ELISA using anti-CA antibodies with different epitopes. […] The infectivity of the culture supernatants was determined by means of end point titration (detailed in example 6d) and is indicated as TCID50 in Table 1. The specific infectivity was determined by dividing TCID50 by the total amount of Gag and is listed in Table 1 as percentage infectivity of the control culture (no zLLL=100%). Both the release of Gag proteins and the infectivity of the released virions are shown to be inhibited after zLLL treatment. This effect increases with time, and infectious virions in the cell culture medium are reduced by 84% after 4.5 hours and by 98% after another 6 hours of pretreatment (Table 1).
# CD4^+ T cells (A3.01) were infected with HIV-1NL4-3, at the time of maximum virus production (approx. 7 days post infection), parallel cultures were treated either without or with 40 μM zLLL for 1 (+zLLL “−1 hr”) or 6 hours (+zLLL “−6 hr”). This was followed by washing the cells and another 4.5 hours of incubating with or without 40 μM zLLL. In a parallel culture, cells were treated with 40 μM zLLL immediately after washing (+zLLL “0 hr”). The virus-containing supernatants were collected, and the amount of CA antigen was quantified by means of ELISA. The specific infectivity was determined as the infectious virus titer per nanog of CA and depicted relative to the untreated control culture (100%).
# Acute HIV-1NL4-3-infected A3.01 cells were treated with 40 microM zLLL for various times, as indicated in exemplary embodiment 1. Cell-free cell culture supernatant was harvested and filtered (pore size=0.45 microm). The relative quantity of released virions was quantified by means of a p24^CA-antigen capture ELISA. For the purpose of virus titration, in each case 8 parallel cultures of C8166 cells were infected with the particular viral preparations, in a serial 10-fold dilution. The infectivity titer was determined as 50% cell culture infectious dose (TCID50), namely by determining syncytia formation for each culture and dilution step on day 10 post infection. […]
# HIV-1NL4-3 [3] = assay type: cell-based
# HIV-1 protease = HIV-1 protease (Human immunodeficiency virus type 1 group M subtype B, UniProt P04585); assay: In vitro Gag processing of recombinant Pr55 by recombinant HIV-1 protease, Western blot; assay type: biochemical; settings: for inhibition of protease activity: 10-fold higher concentration than in the cell culture, 30 min reaction, FIG. 3 reactions 4-9; for inhibitory action on Gag processing by HIV-1 protease: inhibitor concentration of up to 100 microM, enzyme-to-substrate ratio 1:25
# Source text: Therefore, a possible influence of proteasome inhibitors on the enzymic activity of the HIV-1 protease is investigated within the framework of the invention by studying the in vitro processing of Gag polyprotein (for this, see exemplary embodiment 4). For this purpose, according to the invention, recombinant Pr55 is expressed in insect cells and purified from released virus-like particles. Enzymatically active HIV-1 protease is expressed in E. coli and chromatographically purified. The specific activity of the protease is determined by means of titration of the active sites. Pr55 and protease are set to an enzyme-to-substrate ratio of 1:25 and incubated for a defined time under conditions under which only approx. 50% of the substrate Pr55 is proteolytically processed. These reaction conditions allow sensitive detection of small effects on the enzymic activity of the protease.
# Recombinant HIV-1 Gag polyprotein Pr55 was prepared in insect cells and recombinant HIV-1 protease was prepared in E. coli. The experimental details of expression, purification and determination of the enzymic activity as well as carrying out the in vitro cleavage reactions and Western blots are illustrated in more detail in Example 6f. The enzyme-to-substrate ratios (protease-Pr55 ratio) were chosen in such a way that substrate conversion was relatively slow. After 30 min of reaction, approx. 50% of Pr55 had been cleaved. Under these conditions it is possible to determine even weakly inhibitory effects on the enzymic activity of the protease.
# Myristylated Pr55 of HIV-1 was produced from virus-like particles which were released from insect cells infected with recombinant baculovirus Gag12myr. The virus-like particles were purified by centrifugation through a 20% sucrose layer. Recombinant HIV-1 protease expressed in E. coli was purified by means of gel filtration chromatography on Superose 12. The enzyme concentration was determined by means of active-site titration. For cleavage reactions, usually 1 μM Pr55 was incubated with 40 nM (nanomol) PR in reaction buffer (50 mM MES pH 6.5, 300 mM NaCl, 2 mM DTT, 1 mM EDTA, 0.1% Triton-X 100) at 37° C. for 30 min. In order to ensure maximum saturation of PR with inhibitors, PR was preincubated with the particular inhibitor for 5 min, prior to the start of the cleavage reactions. The cleavage reactions were stopped by adding SDS sample buffer and boiling the sample for 10 min. The cleavage products were fractionated in 10% SDS-PAGE and then detected by means of Western blot. For this purpose, anti-CA-specific antibodies were used which were detected by means of anti-rabbit IgG-peroxidase conjugate and chemiluminescence reaction.
# Recombinant Pr55 was isolated from virus-like particles which had been produced by insect cells infected with recombinant bacculovirus. Recombinant HIV-1 protease was expressed in E. coli, purified, and the specific activity was determined by active-site titration. The quantities of Pr55 and protease were mixed with an enzyme-to-substrate ratio of 1:25 and incubated at 37° C. for 30 min. The reaction was stopped by adding SDS sample buffer. The cleavage reactions were then studied by Western blot analysis with CA-specific antiserum. Pr55, CA and intermediate processing product MA-Ca were made visible, after antibody binding, by means of a chemiluminescence reaction. […]
# HIV-1NL4-3 [4] = assay: HIV-1 replication in A3.01 cell culture, RT activity in supernatant; assay type: cell-based; settings: for productive infection in the culture (RT accumulation): 5 microM, approx. 2 weeks
# mouse thymus cell lines = settings: cited from earlier work
smiles,measurement,setting,value
C=C(C)C[C@H](NC(=O)[C@H](CO)NC(=O)CCCCC(C)C)C(=O)[C@@]1(CO)CO1 [eponemycin],number of core-positive cells compared to untreated cultures,"DHBV; 1 μM, day 3 to day 6 after infection",much lower number of core-positive cells
same,tolerability in HepG2,HepG2,still tolerated well
CC(C)c1nc(CN(C)C(=O)N[C@H](C(=O)N[C@@H](Cc2ccccc2)C[C@H](O)[C@H](Cc2ccccc2)NC(=O)OCc2cncs2)C(C)C)cs1 [ritonavir],inhibition of chymotrypsin activity of the 20S proteasome,20S proteasome,can inhibit
Cc1ccc(C(=O)Nc2ccc(S(=O)(=O)O)c3cc(S(=O)(=O)O)cc(S(=O)(=O)O)c23)cc1NC(=O)c1cccc(NC(=O)Nc2cccc(C(=O)Nc3cc(C(=O)Nc4ccc(S(=O)(=O)O)c5cc(S(=O)(=O)O)cc(S(=O)(=O)O)c45)ccc3C)c2)c1 [suramin],number of the core-expressing cells,"DHBV; 100 microg/ml, from three days after infection for three days",very greatly reduced
same,establishment of the primary infection,"DHBV; pretreatment 100 microg/ml, 2 h pre-infection",completely blocks
"CC(C)C[C@@H](C=O)NC(=O)[C@H](CC(C)C)NC(=O)[C@H](CC(C)C)NC(=O)OCc1ccccc1 [zLLL, N-carbobenzoxyl-L-leucinyl-L-leucinyl-L-leucinal] (Cbz-Leu-Leu-Leu-aldehyde)",Virus release ng p24^CA/ml,"HIV-1NL4-3 [1]; 40 μM zLLL added immediately after washing (“0 hr”), 4.5 hours harvest, A3.01",122 ng p24^CA/ml
same,Virus release ng p24^CA/ml,"HIV-1NL4-3 [1]; 40 μM zLLL, 1 hour pretreatment (“−1 hr”) plus 4.5 hours harvest",88 ng p24^CA/ml
same,Virus release ng p24^CA/ml,"HIV-1NL4-3 [1]; 40 μM zLLL, 6 hours pretreatment (“−6 hr”) plus 4.5 hours harvest",26 ng p24^CA/ml
same,Infectivity Titer/ng p24^CA,"HIV-1NL4-3 [2]; “0 hr”, 4.5 hours harvest",1.0 × 10^4 Titer/ng p24^CA
same,Virus titer/ml TCID50,"HIV-1NL4-3 [2]; “0 hr”, 4.5 hours harvest",1.2 × 10^6 TCID50/ml
same,Infectivity % of “no zLLL”,"HIV-1NL4-3 [2]; “0 hr”, 4.5 hours harvest",14%
same,Infectivity Titer/ng p24^CA,HIV-1NL4-3 [2]; “−1 hr” plus 4.5 hours harvest,5.0 × 10^3 Titer/ng p24^CA
same,Virus titer/ml TCID50,HIV-1NL4-3 [2]; “−1 hr” plus 4.5 hours harvest,4.4 × 10^5 TCID50/ml
same,Infectivity % of “no zLLL”,HIV-1NL4-3 [2]; “−1 hr” plus 4.5 hours harvest,7%
same,Infectivity Titer/ng p24^CA,HIV-1NL4-3 [2]; “−6 hr” plus 4.5 hours harvest,1.5 × 10^3 Titer/ng p24^CA
same,Virus titer/ml TCID50,HIV-1NL4-3 [2]; “−6 hr” plus 4.5 hours harvest,3.8 × 10^4 TCID50/ml
same,Infectivity % of “no zLLL”,HIV-1NL4-3 [2]; “−6 hr” plus 4.5 hours harvest,2%
same,reduction of infectious virions in the cell culture medium,HIV-1NL4-3 [2]; after 4.5 hours,84%
same,reduction of infectious virions in the cell culture medium,HIV-1NL4-3 [2]; after another 6 hours of pretreatment,98%
same,kinetics of intracellular Gag processing and of the release of virus-associated and free Gag,HIV-1NL4-3 [3],distinct delay
same,inhibition of protease activity,HIV-1 protease,not possible to detect any inhibition
same,inhibitory action on Gag processing by HIV-1 protease,HIV-1 protease,no inhibitory action whatsoever
same,effect on HIV-1 replication,HIV-1NL4-3 [4]; 1 microM,completely inhibits replication
same,productive infection in the culture (RT accumulation),HIV-1NL4-3 [4]; FIG. 4 panel 1,no productive infection at all
same,productive infection in the culture (RT accumulation),HIV-1NL4-3 [4]; FIG. 4 panel 2,only a very reduced productive infection
same,effect on HIV-1 replication,HIV-1NL4-3 [4]; 100 nanoM,relatively weak inhibitory effect
CC(C)(C)NC(=O)[C@@H]1C[C@@H]2CCCC[C@@H]2CN1C[C@@H](O)[C@H](Cc1ccccc1)NC(=O)[C@H](CC(N)=O)NC(=O)c1ccc2ccccc2n1 [saquinavir],in vitro processing of Pr55,"HIV-1 protease; control, FIG. 3 reaction 10",complete blockage
"CC(=O)N[C@@H](CSC(=O)[C@]1([C@@H](O)C(C)C)NC(=O)[C@H](C)[C@@H]1O)C(=O)O [LC, lactacystin]",inhibition of protease activity,HIV-1 protease,not possible to detect any inhibition
same,inhibitory action on Gag processing by HIV-1 protease,HIV-1 protease,no inhibitory action whatsoever
same,concentration tolerated in cell culture,mouse thymus cell lines,up to 6 μM
CC[C@H](C)[C@H](NC(=O)[C@H]([C@@H](C)CC)N(C)C(C)=O)C(=O)N[C@H](C(=O)N[C@@H](CC(C)C)C(=O)[C@@]1(C)CO1)[C@@H](C)O [epoxomicin],concentration from which toxic symptoms appeared,"HepG2; human, 48 h",≥ 100 nM
